Assays:
[1] = tested on: chickweed; assay: Test C postemergence herbicide test; assay type: in vivo, Stellaria media
Summary of the method: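 Response is scored visually on a 0–100 scale (100 = complete control) relative to untreated controls, 13 to 15 days after treatment. Plants were sprayed postemergence at the 1- to 4-leaf stage (2 to 18 cm tall) and kept in a greenhouse.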

[2] = tested on: ducksalad; assay: Test C flooded paddy test; assay type: in vivo, Heteranthera limosa; settings: Flood
Summary of the method: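 Visual injury scored against controls after 13 to 15 days in the greenhouse, using 0 (no effect) to 100 (complete control). Test compounds went straight into paddy water held 3 cm above the soil surface on 2-leaf-stage plants, with that flood depth maintained for the whole test.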

[3] = tested on: blackgrass; assay: Test A postemergence herbicide test; assay type: in vivo, Alopecurus myosuroides
Summary of the method: (§1)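 Visual injury rating, 0 (no effect) to 100 (complete control), versus untreated controls ~10 days after treatment. Postemergence spray applied at one- to two-leaf stage, plants 2–10 cm tall, potted in loam soil/sand. Greenhouse-held.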

[4] = tested on: galium; assay: Test A postemergence herbicide test; assay type: in vivo, Galium aparine
Summary of the method: as §1

[5] = tested on: kochia; assay: Test C pre-/postemergence herbicide test; assay type: in vivo, Kochia scoparia; settings: Postemergence
Summary of the method: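 Test compounds, formulated in a surfactant-containing non-phytotoxic solvent blend, are applied to seeded loam/sand soil (preemergence) and to young plants at the 1- to 4-leaf stage in peat-based medium (postemergence). Plants stay 13 to 15 days under greenhouse conditions, then are scored visually relative to controls, 0 = no effect, 100 = complete control.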

[6] = 31 g ai/ha, scale 0 to 100 (0 no effect, 100 complete control)
[7] = 62 g ai/ha, scale 0 (no effect) to 100 (complete control)
[8] = 125 g ai/ha, scale 0 to 100 (0 no effect, 100 complete control)
[9] = 250 g ai/ha, scale 0 to 100 (0 no effect, 100 complete control)
[10] = 62 g ai/ha, scale of 0 to 100 where 0 is no effect and 100 is complete control, 13 to 15 days
[11] = 125 g ai/ha, scale of 0 to 100 where 0 is no effect and 100 is complete control, 13 to 15 days
[12] = 250 g ai/ha, scale of 0 to 100 where 0 is no effect and 100 is complete control, 13 to 15 days
[13] = 125 g ai/ha, 0 to 100 scale, 0 is no effect, 100 is complete control
[14] = 8 g ai/ha, scale 0 to 100 (0 no effect, 100 complete control)
[15] = 16 g ai/ha, scale 0 to 100 (0 no effect, 100 complete control)
[16] = 500 g ai/ha, 0 to 100 scale (0 no effect, 100 complete control)

Compound: O=C1NCC(c2ccc(C(F)(F)F)cc2)C1C(=O)Nc1ccc(F)c(F)c1F (stereo not drawn) [Compound 232]
- Plant response rating, Chickweed [1, 6]: 70
- Plant response rating, Chickweed [1, 7]: 85
- Plant response rating, Chickweed [1, 8]: 85
- Plant response rating, Chickweed [1, 9]: 85
- Plant response rating, Ducksalad ([2]; 31 g ai/ha, scale of 0 to 100 where 0 is no effect and 100 is complete control, 13 to 15 days): 50
- Plant response rating, Ducksalad [2, 10]: 75
- Plant response rating, Ducksalad [2, 11]: 75
- Plant response rating, Ducksalad [2, 12]: 95
- Plant response rating, Blackgrass [3, 13]: 50
- Blackgrass plant response rating (0 to 100 scale, 0 is no effect, 100 is complete control) ([3]; 500 g ai/ha): 50
- Plant response rating, Galium [4, 13]: 60
- Galium plant response rating (0 to 100 scale, 0 is no effect, 100 is complete control) ([4]; 500 g ai/ha): 60
- Plant response rating, Kochia [5, 6]: 60
- Plant response rating, Kochia [5, 7]: 70
- Plant response rating, Kochia [5, 8]: 70
- Plant response rating, Kochia [5, 9]: 75

Compound: CN1CC(c2ccc(F)cc2)C(C(=O)Nc2cccc(F)c2F)C1=O (stereo not drawn) [Compound 271]
- Plant response rating, Chickweed [1, 14]: 0
- Plant response rating, Chickweed [1, 15]: 5
- Plant response rating, Chickweed [1, 6]: 5
- Plant response rating, Chickweed [1, 7]: 50
- Plant response rating, Ducksalad [2, 11]: 70
- Plant response rating, Ducksalad [2, 12]: 100
- Plant response rating, Ducksalad ([2]; 500 g ai/ha, scale 0 to 100): 100
- Plant response rating, Ducksalad ([2]; 1000 g ai/ha, scale 0 to 100): 100
- Plant response rating, Blackgrass [3, 13]: 50
- Plant response rating, Blackgrass [3, 16]: 60
- Plant response rating, Galium [4, 13]: 40
- Plant response rating, Galium [4, 16]: 70
- Plant response rating, Kochia [5, 14]: 0
- Plant response rating, Kochia [5, 15]: 0
- Plant response rating, Kochia [5, 6]: 0
- Plant response rating, Kochia [5, 7]: 10

Compound: CN1CC(c2cccc(C(F)(F)F)c2)C(C(=O)Nc2ccccc2F)C1=O (stereo not drawn) [Compound 277]
- Plant response rating, Chickweed [1, 15]: 0
- Plant response rating, Chickweed [1, 6]: 40
- Plant response rating, Chickweed [1, 7]: 0
- Plant response rating, Chickweed [1, 8]: 40
- Plant response rating, Ducksalad [2, 10]: 65
- Plant response rating, Ducksalad [2, 11]: 80
- Plant response rating, Ducksalad [2, 12]: 85
- Plant response rating, Ducksalad ([2]; 500 g ai/ha, scale 0 to 100): 95
- Plant response rating, Blackgrass [3, 13]: 50
- Plant response rating, Blackgrass [3, 16]: 50
- Plant response rating, Galium [4, 13]: 70
- Plant response rating, Galium [4, 16]: 70
- Plant response rating, Kochia [5, 15]: 0
- Plant response rating, Kochia [5, 6]: 0
- Plant response rating, Kochia [5, 7]: 5
- Plant response rating, Kochia [5, 8]: 60
